Legend:
Assay in all cases: LC-MS/MS product formation
Format in all cases: biochemical
ZmBX12 = target: T1, ZmBX12 (Zea mays, UniProt S5S8L0); details: SAM cosubstrate 100 µM, 20 µM substrate, pH 7, 25 °C, 1 h
T1 construct: pASK-IBA37plus, N-terminal His tag, E. coli BL21(DE3), purified
T1 sequence (S5S8L0 1-370): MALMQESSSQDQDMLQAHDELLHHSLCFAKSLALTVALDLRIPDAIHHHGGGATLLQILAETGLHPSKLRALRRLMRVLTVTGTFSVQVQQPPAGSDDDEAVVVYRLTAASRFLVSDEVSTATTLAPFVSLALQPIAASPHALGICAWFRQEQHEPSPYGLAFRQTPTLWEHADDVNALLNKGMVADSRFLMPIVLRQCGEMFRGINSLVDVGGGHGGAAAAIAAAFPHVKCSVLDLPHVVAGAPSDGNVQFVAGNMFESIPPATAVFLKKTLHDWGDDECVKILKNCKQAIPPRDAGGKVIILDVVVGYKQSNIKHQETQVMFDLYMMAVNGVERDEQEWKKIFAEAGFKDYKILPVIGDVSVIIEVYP

ZmBX14 = target: T2, ZmBX14 (Zea mays, UniProt A0A1P8SEU3); details: SAM cosubstrate 100 µM, 20 µM substrate, pH 7, 25 °C, 1 h
T2 construct: pASK-IBA37plus, N-terminal His tag, E. coli BL21(DE3), purified
T2 sequence (A0A1P8SEU3 1-366): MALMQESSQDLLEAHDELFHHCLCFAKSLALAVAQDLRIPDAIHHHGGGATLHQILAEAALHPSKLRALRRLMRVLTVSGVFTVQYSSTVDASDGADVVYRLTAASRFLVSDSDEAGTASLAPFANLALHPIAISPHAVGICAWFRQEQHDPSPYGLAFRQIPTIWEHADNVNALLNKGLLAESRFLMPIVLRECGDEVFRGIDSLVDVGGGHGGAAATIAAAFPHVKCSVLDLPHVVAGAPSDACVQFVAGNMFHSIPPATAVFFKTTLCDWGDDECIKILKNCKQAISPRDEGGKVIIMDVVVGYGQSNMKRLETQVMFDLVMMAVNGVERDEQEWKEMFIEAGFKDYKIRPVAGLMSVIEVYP

ZnBX10 = target: T3, ZnBX10 (Zea nicaraguensis, UniProt Z9J3M6HYI4); details: SAM cosubstrate 100 µM, 20 µM substrate, pH 7, 25 °C, 1 h
T3 construct: full-length ORF, codon-optimized synthetic gene in pET100/D-TOPO, N-terminal His tag, E. coli BL21(DE3), purified
T3 sequence (Z9J3M6HYI4 1-373): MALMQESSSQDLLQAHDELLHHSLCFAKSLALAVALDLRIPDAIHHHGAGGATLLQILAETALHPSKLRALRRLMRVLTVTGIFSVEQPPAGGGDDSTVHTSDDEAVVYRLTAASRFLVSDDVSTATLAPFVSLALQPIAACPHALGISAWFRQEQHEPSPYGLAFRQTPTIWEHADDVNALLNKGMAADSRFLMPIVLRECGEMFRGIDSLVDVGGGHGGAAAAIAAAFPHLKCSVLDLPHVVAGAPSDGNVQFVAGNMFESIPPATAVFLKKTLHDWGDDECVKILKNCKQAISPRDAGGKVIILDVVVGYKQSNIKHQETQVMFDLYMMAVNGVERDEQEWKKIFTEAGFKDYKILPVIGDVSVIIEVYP

ZmBX10 = target: T4, ZmBX10 (Zea mays, UniProt S5S768); details: SAM cosubstrate 100 µM; 20 µM substrate; pH 7; 25 °C; 1 h; product isokaempferide
T4 construct: pASK-IBA37plus, N-terminal His tag, E. coli BL21(DE3), purified
T4 sequence (S5S768 1-375): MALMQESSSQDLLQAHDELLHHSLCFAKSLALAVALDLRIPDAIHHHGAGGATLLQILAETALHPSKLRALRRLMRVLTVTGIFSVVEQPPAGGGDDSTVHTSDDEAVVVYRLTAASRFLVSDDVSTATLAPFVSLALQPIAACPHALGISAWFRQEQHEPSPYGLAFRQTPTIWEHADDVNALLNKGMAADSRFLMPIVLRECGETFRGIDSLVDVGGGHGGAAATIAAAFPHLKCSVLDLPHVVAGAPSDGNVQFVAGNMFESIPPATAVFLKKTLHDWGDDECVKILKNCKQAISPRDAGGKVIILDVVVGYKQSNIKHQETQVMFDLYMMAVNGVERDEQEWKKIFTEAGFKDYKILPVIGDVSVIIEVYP

ZmBX11 = target: T5, ZmBX11 (Zea mays, UniProt S5RK83); details: SAM cosubstrate 100 µM; 20 µM substrate; pH 7; 25 °C; 1 h; product isokaempferide
T5 construct: pASK-IBA37plus, N-terminal His tag, E. coli BL21(DE3), purified
T5 sequence (S5RK83 1-375): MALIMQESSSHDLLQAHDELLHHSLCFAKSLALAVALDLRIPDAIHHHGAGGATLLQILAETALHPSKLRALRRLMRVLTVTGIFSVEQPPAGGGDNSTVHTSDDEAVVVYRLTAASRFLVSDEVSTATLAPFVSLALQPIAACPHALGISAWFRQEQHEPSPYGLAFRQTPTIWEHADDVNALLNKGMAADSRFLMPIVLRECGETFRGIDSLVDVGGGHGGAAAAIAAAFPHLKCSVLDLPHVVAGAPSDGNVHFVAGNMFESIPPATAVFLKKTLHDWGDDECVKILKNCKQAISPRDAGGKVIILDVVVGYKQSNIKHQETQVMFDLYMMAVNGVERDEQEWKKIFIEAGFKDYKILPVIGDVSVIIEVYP

SbFOMT2 = target: T6, SbFOMT2 (Sorghum bicolor, UniProt C5WYJ6); details: SAM cosubstrate 100 µM; 20 µM substrate; pH 7; 25 °C; 1 h; flavonoid 5-O-methylation, trace isokaempferide
T6 construct: gene SORBI_3001G354400; full-length ORF from leaf cDNA, in pET100/D-TOPO or pASK-IBA37plus, N-terminal His tag, E. coli BL21(DE3), purified
T6 sequence (C5WYJ6 1-365): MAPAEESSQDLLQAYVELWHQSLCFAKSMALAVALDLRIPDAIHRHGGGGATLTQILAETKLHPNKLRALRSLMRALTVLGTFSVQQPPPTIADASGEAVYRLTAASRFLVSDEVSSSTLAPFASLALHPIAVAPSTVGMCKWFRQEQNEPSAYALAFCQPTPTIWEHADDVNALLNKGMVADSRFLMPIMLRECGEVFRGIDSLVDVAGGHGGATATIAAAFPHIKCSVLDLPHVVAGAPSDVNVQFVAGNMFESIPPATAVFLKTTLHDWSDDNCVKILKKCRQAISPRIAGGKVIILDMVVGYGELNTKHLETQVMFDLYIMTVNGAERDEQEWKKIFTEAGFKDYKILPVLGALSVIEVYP

[1] = product HDMBOA-Glc, positive control

Structure (SMILES) | LC-MS/MS product formation (ZmBX12; [1]) | LC-MS/MS product formation (ZmBX14; [1]) | LC-MS/MS product formation (ZnBX10; product HDMBOA-Glc) | LC-MS/MS product formation (ZmBX12; product isokaempferide) | LC-MS/MS product formation (ZmBX14; lowest activity of the maize BX OMTs) | LC-MS/MS product formation (ZmBX10) | LC-MS/MS product formation (ZmBX11) | LC-MS/MS product formation (ZnBX10; product isokaempferide) | LC-MS/MS product formation (SbFOMT2)
COc1ccc2c(c1)O[C@H](O[C@@H]1O[C@H](CO)[C@@H](O)[C@H](O)[C@H]1O)C(=O)N2O [DIMBOA-Glc, 2,4-dihydroxy-7-methoxy-1,4-benzoxazin-3-one glucoside] | Besides ZmBX14 and ZmBX12, ZnBX10 also converted DIMBOA-Glc to HDMBOA-Glc | Besides ZmBX14 and ZmBX12, ZnBX10 also converted DIMBOA-Glc to HDMBOA-Glc | ZnBX10 also converted DIMBOA-Glc to HDMBOA-Glc |  |  |  |  |  | 
O=c1c(O)c(-c2ccc(O)cc2)oc2cc(O)cc(O)c12 [kaempferol] |  |  |  | with ZmBX12 as the most active OMT, followed by ZmBX10, ZmBX11, and ZmBX14 | with ZmBX12 as the most active OMT, followed by ZmBX10, ZmBX11, and ZmBX14 | ZmBX10-12 and ZnBX10 produced substantial amounts of the 3-O-methylated derivative isokaempferide | ZmBX10-12 and ZnBX10 produced substantial amounts of the 3-O-methylated derivative isokaempferide | ZmBX10-12 and ZnBX10 produced substantial amounts of the 3-O-methylated derivative isokaempferide | ZmFOMT2 and SbFOMT2 produced only trace amounts of this compound
